Experimental data published in patent publication US20010025059A1, “Composition and method for treating non-bacterial prostatitis” (priority 2000, published 2001).

Experiments:
[1] = system: non-bacterial prostatitis; assay: Example II: double blind study, 30 patients without positive bacterial cultures localized to the prostatic fluid; assay type: in vivo, human
Description: A double blind study using 30 patients without positive bacterial cultures localized to the prostatic fluid were enrolled in a double blind study. Seventeen of the patients received a composition comprised of quercetin in amount of 500 milligrams, bromelain in an amount of 10 milligrams, and papain in an amount of 10 milligrams as the active ingredients thereof. After a randomized study was completed, an additional fifteen patients were treated in an open label study with […]. […] The mean symptom score improved from 21.0 to 13.1 in the group receiving quercetin, but from 20.2 to 18.8 in the placebo group. This represented an improvement of 35%. In those patients which received only the quercetin, without the papain and bromelain, with obtainable extra prostatic secretions, the white blood cell count in the prostatic fluid decreased from 16.8 to 5.3, versus a decrease from 13.1 to 8.3 in the placebo patients.

[2] = Tests of bioavailability / transmural intestinal absorption; assay type: in vivo; conditions: quercetin alone; transmural intestinal absorption relatively low

With O=c1c(O)c(-c2ccc(O)c(O)c2)oc2cc(O)cc(O)c12 [quercetin] the “mean symptom score, after treatment” value ([1]; end of study) was 13.1, the “improvement of mean symptom score” value ([1]; human, in vivo) was 35% and the “white blood cell count in the prostatic fluid, after treatment” value ([1]; patients with obtainable prostatic secretions, end of study) was 5.3. The “white blood cell count in the prostatic fluid, before treatment” value ([1]; patients with obtainable prostatic secretions, starting value) was 16.8, the “mean symptom score, before treatment” value ([1]; starting value of the group) was 21.0 and the bioavailability [2] was “does not have a high bioavailability”.
